Laboratory results as given in patent publication US6939869B2, “Pyrrolo[2,1-c][1,4] benzodiazepine-indole derivatives, their preparation process, and uses of the same” (Kaohsiung Medical University, priority 2002, dated 2005).

Legend:
RXF 393 (renal cancer) = assay: NCI in vitro anticancer assay, growth inhibition, RXF 393; format: cell-based; conditions: Homo sapiens, read-out: GI50 (concentration causing 50% cell growth inhibition)
From the text: (§1) The tested human tumor cell lines are as follows: (1) CCRF-CEM, K-562, MOLT-4 and SR of leukemia; (2) A549/ATCC, EKVX, HOP-62, HOP-92, NCI-H226, NCI-H23, NCI-H322M, NCI-H460a and NCI-H522 of non-small cell lung cancer; (3) COLO 205, HCC-2998, HCT-116, HCT-15, HT29, KM12 and SW-620 of colon cancer; (4) SF-268, SF-295, SF-539, SNB-19, SNB-75 and U251 of CNS cancer; (5) LOX IMVI, MALME-3M, M14, SK-MEL-2, SK-MEL-28, SK-MEL-5, UACC-257 and UACC-62 of melanoma; (6) IGROV1, OVCAR-3, OVCAR-4, OVCAR-5, OVCAR-8 and SK-OV-3 of ovarian cancer; (7) 786-0, A498, ACHN, CAKI-1, RXF 393, SN12C, TK-10 and UO-31 of renal cancer; (8) […] and DU-145 of prostate cancer; and (9) MCF7, MCF7/ADR-RES, MDA-MB-231/ATCC, HS 578T, MDA-MB-435, MDA-N, BT-549 and T-47D of breast cancer.
(§2) For each compound, the dose-response curves for each tested tumor cell line were measured with five different dose concentrations, and the concentration causing 50% cell growth inhibition (GI50) compared with the control was calculated.

SN12C (renal cancer) = assay: NCI in vitro anticancer assay, growth inhibition, SN12C; format: cell-based; conditions: Homo sapiens, read-out: GI50 (concentration causing 50% cell growth inhibition)
From the text: as §1, §2

[1] = test system: 60 human tumor cell lines; assay: NCI in vitro anticancer assay, mean over 60 cell lines; format: cell-based; conditions: mean values over 60 cell lines tested
From the text: as §1, §2
Table 1 summarizes the respective GI50 values and mean GI50 values for the tested compounds in relation to all the 60 tumor cell lines.

[2] = In vivo hollow fiber assay (NCI); conditions: intraperitoneal (IP) and subcutaneous (SC) samples, total score of 20 or more considered active
Protocol: The compounds obtained from the above Synthesis Ex. 1 and Synthesis Ex. 2 were further examined in an in vivo hollow fiber assay conducted by the National Cancer Institute (NCI) in the United States, in which an intraperitoneal (IP) sample and a subcutaneous (SC) sample were tested. In this assay, if a tested compound is observed to have a total score of IP score and SC score […]20, it will be considered to be active and to have the potential as an anti-tumor/anti-cancer drug candidate. According to the confidential report of the Developmental Therapeutics Program issued by NCI on Apr.

[3] = test system: NCI-H522 (non-small cell lung cancer); assay: NCI in vitro anticancer assay, growth inhibition, NCI-H522; format: cell-based; conditions: Homo sapiens, read-out: GI50 (concentration causing 50% cell growth inhibition)
From the text: as §1, §2

COLO 205 (colon cancer) = assay: NCI in vitro anticancer assay, growth inhibition, COLO 205; format: cell-based; conditions: Homo sapiens, read-out: GI50 (concentration causing 50% cell growth inhibition)
From the text: as §1, §2

SF-268 (CNS cancer) = assay: NCI in vitro anticancer assay, growth inhibition, SF-268; format: cell-based; conditions: Homo sapiens, read-out: GI50 (concentration causing 50% cell growth inhibition)
From the text: as §1, §2

HT29 (colon cancer) = assay: NCI in vitro anticancer assay, growth inhibition, HT29; format: cell-based; conditions: Homo sapiens, HT-29, read-out: GI50 (concentration causing 50% cell growth inhibition)
From the text: as §1, §2

U251 (CNS cancer) = assay: NCI in vitro anticancer assay, growth inhibition, U251; format: cell-based; conditions: Homo sapiens, U-251, read-out: GI50 (concentration causing 50% cell growth inhibition)
From the text: as §1, §2

[4] = test system: EKVX (non-small cell lung cancer); assay: NCI in vitro anticancer assay, growth inhibition, EKVX; format: cell-based; conditions: Homo sapiens, read-out: GI50 (concentration causing 50% cell growth inhibition)
From the text: as §1, §2

SMILES	GI50 (RXF 393 (renal cancer)) [nM]	GI50 (SN12C (renal cancer)) [nM]	GI50 ([1]; Homo sapiens, 60 cell) [nM]	GI50 [1] [nM]	total score of IP score and SC score [2]	GI50 [3] [nM]	GI50 (COLO 205 (colon cancer)) [nM]	GI50 (SF-268 (CNS cancer)) [nM]	GI50 (HT29 (colon cancer)) [nM]	GI50 (U251 (CNS cancer)) [nM]	GI50 [4] [nM]
COc1cc2c(cc1OC(=O)c1cc3ccccc3[nH]1)N=C[C@@H]1CCCN1C2=O [Synthesis Ex. 1]	155	210	≤ 380	380	22	198	196	669	185	302	674
COc1cc2c(cc1OCCCNC(=O)c1cc3ccccc3[nH]1)N=C[C@@H]1CCCN1C2=O [Synthesis Ex. 2]	25	410			30	14.1	118	27	274	39.4	604
